The target in this assay is T1, partially purified human renin (Homo sapiens, UniProt P00797).
T1 sequence (P00797 67-406): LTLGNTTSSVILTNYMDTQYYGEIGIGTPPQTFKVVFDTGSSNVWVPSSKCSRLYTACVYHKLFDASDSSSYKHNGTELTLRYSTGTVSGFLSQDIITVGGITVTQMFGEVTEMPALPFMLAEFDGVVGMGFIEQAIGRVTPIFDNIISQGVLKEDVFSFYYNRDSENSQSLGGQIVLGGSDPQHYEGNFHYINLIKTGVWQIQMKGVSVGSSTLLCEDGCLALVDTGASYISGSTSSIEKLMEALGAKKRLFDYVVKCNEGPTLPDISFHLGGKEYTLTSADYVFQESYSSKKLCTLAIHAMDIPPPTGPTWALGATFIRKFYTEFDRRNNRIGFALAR
The assay can be described thus: in vitro inhibition of renin-catalysed angiotensin I generation (radioimmunoassay). It counts as biochemical. The following applies: human renin with angiotensinogen; angiotensin I by radioimmunoassay; read-out: IC50 (concentration for 50% inhibition of the renin catalysed reaction). As to the method:
The inhibition of the catalytic activity of renin, and in particular of human renin, may be assessed in vitro using a routine laboratory procedure involving the incubation of a test compound initially at a concentration of 100 micromolar in a buffered mixture containing appropriate concentrations of partially purified human renin and the natural renin substrate angiotensinogen. The formation of the angiotensin known as angiotensin I (which is assayed by a standard radioimmunoassay using procedures well known in the art) is inhibited by those compounds which inhibit the action of renin and the degree of inhibition is readily determined by comparing the angiotensin I generation rate in the presence of the test compound (at the specified test concentration) with the control rate of angiotensin I generation in the absence of the test compound.
In this standard test procedure, compounds which show at least 30% inhibition are retested at lower concentrations to determine their inhibitory potency. For determination of the IC50 (concentration for 50% inhibition of the renin catalysed reaction), concentrations are ordinarily chosen to allow testing over at least four orders of magnitude centred about the predicted approximate IC50, which latter is subsequently determined from a plot of percentage inhibition against concentration of the test compound. […]

This passage reports IC50 results from patent US5091425A, “5-(heterocyclylalkanoyl)amino-4-hydroxypentanamides” (Imperial Chemical Industries plc, priority 1988, dated 1992).

Consider `CCCCNC(=O)[C@@H](C[C@H](O)[C@H](CC1CCCCC1)NC(=O)C(Cc1cccnc1)c1nnc2c(CCC)nc(-c3cccnc3)cn12)C(C)C` (mixture of isomers) [Example 6, (2S,4S,5S)-N-butyl-6-cyclohexyl-4-hydroxy-2-isopropyl-5-[(2RS)-2-(8-propyl-6-(3-pyridyl)-1,2,4-triazolo[4,3-a]pyrazin-3-yl)-3-(3-pyridyl)propionamido]hexanamide], for which the IC50 worked out at 0.2 nM.
